In US20170312260A1 (LAUNX BIOMEDICAL CO., LTD., priority 2014, published 2017):
Where “and” joins values, the source holds several entries; their conditions need not be identical. Equal values may be shown once. Read-outs that look alike come from different tables or passages of the source.

Assays:
[1] = system: breast cancer cell line MCF7; test: WST-1 cell viability analysis, MCF7; assay type: cell-based; conditions: Homo sapiens, MCF7, 10 μM, 72 hours, read-out: viability (survival rate) of MCF7 cells
Experimental: (§1) The cell numbers were counted and reseed as 2×10^6 in cell culture plate/flask. Then, the culture medium were added to a volume of 10 ml, and the cells were cultured for 2-3 days. Then, the cells were suspended for loading into 96-well plates. The number of cells was 3000 and the volume of the culture medium was 100 μl each well.
(§2) Removing the original culture medium from 96-well plate. Then add 100 μl of commercially drug at a concentration of 10 μM per well. After 72 hours, add the diluted WST-1 reagent to the well with 100 μl/well, and the diluted WST-1 reagent was acquired from the dilution of 9:1 medium and WST-1 stock reagent. Finally, the total volume of each well was 200 μl/well. Culture the 96-well plate at 37° C. for 30 to 90 minutes. Detecting and calculate the survival rate of each cancer cells with an ELISA reader at OD450 nm.

[2] = Animal model test, body weight and health status of mice; assay type: in vivo, female mice (BALB/cAnN.Cg-Foxn1^nu/CrlNarl); conditions: for weight: single mice A-C
Experimental: In this invention, the female mice were (BALB/cAnN.Cg-Foxn1^nu/CrlNarl) purchased from National Laboratory Animal Center (Taiwan)). The weight of the mice were 21±1 g. These mice were subcutaneously injected with gastric cancer cells (AGS) and then put these mice into different cages at random. The drug test experiment was divided into three groups, include “normal control group”, “low dose group (100 mg/kg/day)”, and “high dose group (200 mg/kg/day)”. These mice were then injected test drug intraperitoneally once daily […]. The tumor sizes and body weight were measured twice a week. The tumor sizes were measured and calculated by formula: (L×W^2)/2. L represents the tumor longest length. W represents the tumor shortest diameter.

[3] = system: prostate cancer cell line PC-3; test: WST-1 cell viability analysis, PC-3; assay type: cell-based; conditions: Homo sapiens
Experimental: as §1, §2

[4] = system: H1650 (lung adenocarcinoma); test: WST-1 cell viability analysis, H1650; assay type: cell-based; conditions: Homo sapiens
Experimental: as §1, §2

[5] = system: bladder cancer cell line T24; test: WST-1 cell viability analysis, T24; assay type: cell-based; conditions: Homo sapiens
Experimental: as §1
as §2, with “Culture the 96-well plate at 37° C. for 30 to 90 minutes.” left out

[6] = system: bladder cancer cell line TSGH; test: WST-1 cell viability analysis, TSGH; assay type: cell-based; conditions: 72 hours, read-out: viability (survival rate) of TSGH cells
Experimental: as §1, §2

[7] = system: LoVo(Colorectal Adenocarcinoma); test: WST-1 cell viability analysis, LoVo; assay type: cell-based; conditions: Homo sapiens
Experimental: as §1, §2

[8] = system: pancreatic cancer cell line AsPC-1; test: WST-1 cell viability analysis, AsPC-1; assay type: cell-based; conditions: Homo sapiens
Experimental: as §1, §2

cervical cancer cells = test: Summary of cell viability, cervical cancer; assay type: cell-based; conditions: 72 hours, summary for cervical cancer, read-out: Inhibitory effect, cervical cancer
Experimental: as §1, §2
(§3) As a result in the experiments of the present invention.

[9] = system: SAS (Tongue squamous cell carcinoma); test: WST-1 cell viability analysis, SAS; assay type: cell-based
Experimental: as §1, §2

bladder cancer cells = test: Summary of cell viability, bladder cancer; assay type: cell-based; conditions: 72 hours, summary over the bladder cancer cell lines, read-out: Inhibitory effect, bladder cancer
Experimental: as §1, §2, §3

[10] = system: HeLa (Cervix Adenocarcinoma); test: WST-1 cell viability analysis, HeLa; assay type: cell-based; conditions: Homo sapiens
Experimental: as §1, §2

## CC1=C(C(=O)OC(C)C)C(c2cccc([N+](=O)[O-])c2)C(C(=O)OC2CN(C(c3ccccc3)c3ccccc3)C2)=C(N)N1 (stereo not shown) [Azelnidipine]
[1]; run 0612-10 min
  viability at 10 µM: 48.6%
[1]; run 0614-10 min
  viability at 10 µM: 46.6%
[1]; run 0616-10 min
  viability at 10 µM: 68.2%
[1]; run 0619-10 min
  viability at 10 µM: 79.9%
[2]; both high and low doses
  health status / death of tested mice during the treatment (in words): without death
[2]; high dose (200 mg/kg/day) i.p., Fifth measurement, 200 mg/kg/day
  weight: 20 g and 21 g
[2]; high dose (200 mg/kg/day) i.p., First measurement, 200 mg/kg/day
  weight: 20 g and 19.5 g
[2]; high dose (200 mg/kg/day) i.p., Fourth measurement, 200 mg/kg/day
  weight: 20 g and 21 g
[2]; high dose (200 mg/kg/day) i.p., Second measurement, 200 mg/kg/day
  weight: 19 g and 20 g
[2]; high dose (200 mg/kg/day) i.p., Third measurement, 200 mg/kg/day
  weight: 20.5 g and 19 g and 20 g
[2]; low dose (100 mg/kg/day) i.p., Fifth measurement, 100 mg/kg/day
  weight: 20 g and 21 g
[2]; low dose (100 mg/kg/day) i.p., First measurement
  weight: 21 g
[2]; low dose (100 mg/kg/day) i.p., Fourth measurement, 100 mg/kg/day
  weight: 20 g and 21 g
[2]; low dose (100 mg/kg/day) i.p., Second measurement, 100 mg/kg/day
  weight: 20 g and 19 g
[2]; low dose (100 mg/kg/day) i.p., Third measurement, 100 mg/kg/day
  weight: 19.5 g and 19 g and 18.5 g
[2]; low dose and high dose
  weight of mice during the experiment (in words): did not show a significant decrease
[3]; PC-3, 10 μM, 72 hours, run PC-3-0524-10 min, read-out: viability (survival rate) of PC-3 cells
  viability at 10 µM: 122%
[3]; PC-3, 10 μM, 72 hours, run PC-3-0526-10 min, read-out: viability (survival rate) of PC-3 cells
  viability at 10 µM: 149%
[3]; PC-3, 10 μM, 72 hours, run PC-3-0529-10 min, read-out: viability (survival rate) of PC-3 cells
  viability at 10 µM: 110%
[3]; PC-3, 10 μM, 72 hours, run PC-3-0531-10 min, read-out: viability (survival rate) of PC-3 cells
  viability at 10 µM: 102%
[3]; PC-3, 72 h, 10 μM, average of 4 tests, read-out: Average viability of PC-3 cells
  viability at 10 µM: 121%
[4]; NCI-H1650, 10 μM, 72 hours, run 1-10 min, read-out: viability (survival rate) of H1650 cells
  viability at 10 µM: 28.8%
[4]; NCI-H1650, 10 μM, 72 hours, run 2-20 min, read-out: viability (survival rate) of H1650 cells
  viability at 10 µM: 26.5%
[4]; NCI-H1650, 10 μM, 72 hours, run 3-20 min, read-out: viability (survival rate) of H1650 cells
  viability at 10 µM: 40.5%
[4]; NCI-H1650, 10 μM, 72 hours, run 4-20 min, read-out: viability (survival rate) of H1650 cells
  viability at 10 µM: 62.7%
[4]; NCI-H1650, 72 h, 10 μM, average of 4 tests, read-out: Average viability of H1650 cells
  viability at 10 µM: 39.7%
[5]; T-24, 10 μM, 72 hours, run 1-30 min, read-out: viability (survival rate) of T24 cells
  viability at 10 µM: 110%
[5]; T-24, 10 μM, 72 hours, run 2-20 min, read-out: viability (survival rate) of T24 cells
  viability at 10 µM: 75.3%
[5]; T-24, 10 μM, 72 hours, run 3-20 min, read-out: viability (survival rate) of T24 cells
  viability at 10 µM: 30.4%
[5]; T-24, 10 μM, 72 hours, run 4-20 min, read-out: viability (survival rate) of T24 cells
  viability at 10 µM: 102%
[5]; T-24, 72 h, 10 μM, average of 4 tests, read-out: average viability of T24 cells
  viability at 10 µM: 79.5%
[6]; run 0510-10 min
  viability at 10 µM: 151%
[6]; run 0512-10 min
  viability at 10 µM: 117%
[6]; run 0515-10 min
  viability at 10 µM: 72%
[6]; run 0517-10 min
  viability at 10 µM: 120%
[7]; 72 h, average of 4 tests, read-out: Average viability of LoVo cells
  viability at 10 µM: 59.9%
[7]; 72 hours, run 0616-10 min, read-out: viability (survival rate) of LoVo cells
  viability at 10 µM: 49.6%
[7]; 72 hours, run 0619-10 min, read-out: viability (survival rate) of LoVo cells
  viability at 10 µM: 67.2%
[7]; 72 hours, run 0621-10 min, read-out: viability (survival rate) of LoVo cells
  viability at 10 µM: 62.3%
[7]; 72 hours, run 0623-10 min, read-out: viability (survival rate) of LoVo cells
  viability at 10 µM: 60.3%
[8]; ASPC1, 10 μM, 72 hours, run 1-4-30 min, read-out: viability (survival rate) of AsPC-1 cells
  viability at 10 µM: 58.6%
[8]; ASPC1, 10 μM, 72 hours, run 1-7-3-30 min, read-out: viability (survival rate) of AsPC-1 cells
  viability at 10 µM: 104%
[8]; ASPC1, 10 μM, 72 hours, run 1-7-4-30 min, read-out: viability (survival rate) of AsPC-1 cells
  viability at 10 µM: 46.1%
[8]; ASPC1, 10 μM, 72 hours, run 1-7-7-30 min, read-out: viability (survival rate) of AsPC-1 cells
  viability at 10 µM: 13.7%
[8]; ASPC1, 72 h, 10 μM, average of 4 tests, read-out: Average viability of AsPC-1 cells
  viability at 10 µM: 55.6%
Cervical cancer cells
  viability at 10 µM: 87%
[9]; 72 h, average of 4 tests, read-out: Average viability of SAS cells
  viability at 10 µM: 76.8%
[9]; 72 h, summary (SAS), read-out: Inhibitory effect, tongue cancer
  viability at 10 µM: 76.8%
[9]; 72 hours, run 6-26-10 min, read-out: viability (survival rate) of SAS cells
  viability at 10 µM: 69.9%
[9]; 72 hours, run 6-28-10 min, read-out: viability (survival rate) of SAS cells
  viability at 10 µM: 66%
[9]; 72 hours, run 6-30-10 min, read-out: viability (survival rate) of SAS cells
  viability at 10 µM: 66.7%
[9]; 72 hours, run 7-3-10 min, read-out: viability (survival rate) of SAS cells
  viability at 10 µM: 105%
Bladder cancer cells
  viability at 10 µM: 97.3%
[10]; 72 h, average of 4 tests, read-out: Average viability of HeLa cells
  viability at 10 µM: 87%
[10]; 72 hours, run 0524-10 min, read-out: viability (survival rate) of HeLa cells
  viability at 10 µM: 70.4%
[10]; 72 hours, run 0526-10 min, read-out: viability (survival rate) of HeLa cells
  viability at 10 µM: 93.7%
[10]; 72 hours, run 0529-10 min, read-out: viability (survival rate) of HeLa cells
  viability at 10 µM: 81.4%
[10]; 72 hours, run 0531-10 min, read-out: viability (survival rate) of HeLa cells
  viability at 10 µM: 103%
